Results from US20250026721A1, “COMPOUNDS AND METHODS FOR MODULATING RAS-PI3K” (Vividion Therapeutics, Inc., priority 2023, published 2025).

Key:
PIK3CA_C242 = target: T1, PIK3CA_C242 (Homo sapiens, UniProt P42336); experiment: Proteomic TE50 (IA-DTB / TMT mass spectrometry) in Jurkat cell lysate; format: binding; settings: 1 hour at rt, 7-point dose response
T1 construct: endogenous in cells; host or cells: Jurkat cell lysate
How it was run: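 Jurkat lysate (500 μg) treated with compound (7-point, 1:5 dilutions) for 1 h at rt, then labelled with 200 μM IA-DTB for 1 h. After digestion and streptavidin enrichment, the C242 peptide was quantified by targeted MS3 TMT. TE50 was derived from reporter-ion S/N dose-response curves.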

PIK3CA = target: T2, PIK3CA (Homo sapiens, UniProt P42336); experiment: In vitro ELISA target engagement assay for PIK3CA in Jurkat cellular lysate (competition with PIK3CA Biotin Probe); format: binding; settings: 1 hour at rt, then 500 nM PIK3CA Biotin Probe, read-out: Elisa Target Engagement Assay (TE50)
T2 construct: endogenous in cells; host or cells: Jurkat cell lysate
T2 sequence (P42336 whole entry): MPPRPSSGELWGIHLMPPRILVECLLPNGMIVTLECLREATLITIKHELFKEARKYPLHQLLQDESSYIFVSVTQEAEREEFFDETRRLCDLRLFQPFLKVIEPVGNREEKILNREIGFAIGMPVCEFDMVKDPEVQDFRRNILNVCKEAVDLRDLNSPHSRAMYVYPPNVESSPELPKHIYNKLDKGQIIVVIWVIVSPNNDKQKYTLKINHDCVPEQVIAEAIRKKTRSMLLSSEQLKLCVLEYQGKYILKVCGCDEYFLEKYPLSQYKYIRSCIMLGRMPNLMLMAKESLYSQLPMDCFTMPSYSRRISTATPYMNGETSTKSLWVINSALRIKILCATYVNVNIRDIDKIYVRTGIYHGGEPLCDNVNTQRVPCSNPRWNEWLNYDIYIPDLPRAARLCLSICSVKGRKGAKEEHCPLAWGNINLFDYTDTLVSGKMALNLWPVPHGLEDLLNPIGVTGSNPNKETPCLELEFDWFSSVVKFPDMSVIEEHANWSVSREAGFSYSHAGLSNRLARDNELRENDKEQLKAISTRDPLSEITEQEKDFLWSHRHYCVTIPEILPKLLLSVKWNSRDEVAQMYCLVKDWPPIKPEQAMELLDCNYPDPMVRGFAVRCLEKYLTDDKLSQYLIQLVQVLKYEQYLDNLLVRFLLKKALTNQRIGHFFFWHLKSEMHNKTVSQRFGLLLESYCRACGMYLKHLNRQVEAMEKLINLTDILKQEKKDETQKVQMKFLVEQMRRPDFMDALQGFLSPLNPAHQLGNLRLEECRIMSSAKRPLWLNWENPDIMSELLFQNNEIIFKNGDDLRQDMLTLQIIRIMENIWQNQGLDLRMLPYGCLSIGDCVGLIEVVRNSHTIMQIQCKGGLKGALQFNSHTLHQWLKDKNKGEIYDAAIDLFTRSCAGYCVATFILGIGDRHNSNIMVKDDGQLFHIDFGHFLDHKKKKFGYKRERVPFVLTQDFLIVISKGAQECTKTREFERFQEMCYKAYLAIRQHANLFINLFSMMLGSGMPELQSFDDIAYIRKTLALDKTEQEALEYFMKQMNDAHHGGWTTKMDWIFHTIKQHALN
T2 sequence (P27986 whole entry partner): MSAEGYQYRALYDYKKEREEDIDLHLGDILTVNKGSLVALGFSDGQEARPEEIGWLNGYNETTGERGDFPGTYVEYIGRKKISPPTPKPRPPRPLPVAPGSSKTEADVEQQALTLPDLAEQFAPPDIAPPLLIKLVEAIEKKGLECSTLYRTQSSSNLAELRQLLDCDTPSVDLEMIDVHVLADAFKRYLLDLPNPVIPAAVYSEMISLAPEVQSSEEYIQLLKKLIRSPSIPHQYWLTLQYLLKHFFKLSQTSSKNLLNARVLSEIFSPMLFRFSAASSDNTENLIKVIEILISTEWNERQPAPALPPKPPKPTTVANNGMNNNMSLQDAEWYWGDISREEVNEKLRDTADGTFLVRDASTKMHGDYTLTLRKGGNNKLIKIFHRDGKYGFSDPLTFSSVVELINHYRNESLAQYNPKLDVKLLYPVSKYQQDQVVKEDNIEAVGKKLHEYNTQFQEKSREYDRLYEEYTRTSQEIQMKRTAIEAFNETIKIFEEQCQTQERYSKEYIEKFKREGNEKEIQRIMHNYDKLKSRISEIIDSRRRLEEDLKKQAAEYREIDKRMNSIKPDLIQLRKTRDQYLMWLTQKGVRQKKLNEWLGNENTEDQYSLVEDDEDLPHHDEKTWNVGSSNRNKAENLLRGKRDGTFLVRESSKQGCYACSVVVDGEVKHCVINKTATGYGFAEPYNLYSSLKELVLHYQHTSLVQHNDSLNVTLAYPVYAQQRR
How it was run: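 Jurkat lysate from sonicated frozen cells was preincubated 1 h at rt with serially diluted compound up to 200 μM, then labelled 1 h at rt with PIK3CA biotin probe at 500 nM final. Probe-bound PIK3CA was captured on antibody-coated plates and detected with Neutravidin-HRP luminescence; TE50 derived from the dose response.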

T1 sequence (P42336 whole entry): as the sequence (P42336 whole entry) above
T1 sequence (P27986 whole entry partner): as the sequence (P27986 whole entry partner) above

IC50 (PIK3CA_C242) | IC50 (PIK3CA) | SMILES
284 nM | 290 nM | COc1cc(-c2ccccc2C)c(S(=O)(=O)N2CCC(F)(C(=O)N[C@H](C)/C=C\S(C)(=O)=O)CC2)cn1 [Compound 193, (R,Z)-4-fluoro-1-((6-methoxy-4-(o-tolyl)pyridin-3-yl)sulfonyl)-N-(4-(methylsulfonyl)but-3-en-2-yl)piperidine-4-carboxamide]
371 nM | 384 nM | COc1ccc(S(=O)(=O)N2CCC(F)(C(=O)N[C@H](C)/C=C\S(C)(=O)=O)CC2)c(-c2cccc(F)c2Cl)c1 [Compound 26, (R,Z)-1-((2′-chloro-3′-fluoro-5-methoxy-[1,1′-biphenyl]-2-yl)sulfonyl)-4-fluoro-N-(4-(methylsulfonyl)but-3-en-2-yl)piperidine-4-carboxamide]
96 nM | 99 nM | CC#Cc1cccc(-c2cc(Cl)ccc2S(=O)(=O)N2CCC(F)(C(=O)N[C@@H](C)/C=C\S(C)(=O)=O)CC2)c1 [Compound 100, (S,Z)-1-((5-chloro-3′-(prop-1-yn-1-yl)-[1,1′-biphenyl]-2-yl)sulfonyl)-4-fluoro-N-(4-(methylsulfonyl)but-3-en-2-yl)piperidine-4-carboxamide]
75.5 nM | 150 nM | Cc1ccccc1-c1cc(N(C)C)ccc1S(=O)(=O)N1CCC(F)(C(=O)N[C@H](C)/C=C\S(C)(=O)=O)CC1 [Compound 93, (R,Z)-1-((5-(dimethylamino)-2′-methyl-[1,1′-biphenyl]-2-yl)sulfonyl)-4-fluoro-N-(4-(methylsulfonyl)but-3-en-2-yl)piperidine-4-carboxamide]
730 nM | 480 nM | COc1cccc(COc2cccc(-c3cc(Cl)ccc3S(=O)(=O)N3CCC(F)(C(=O)N[C@@H](C)/C=C\S(C)(=O)=O)CC3)c2)c1 [Compound 261, (S,Z)-1-((5-chloro-3′-((3-methoxybenzyl)oxy)-[1,1′-biphenyl]-2-yl)sulfonyl)-4-fluoro-N-(4-(methylsulfonyl)but-3-en-2-yl)piperidine-4-carboxamide]
460 nM | 670 nM | C[C@H](/C=C\S(C)(=O)=O)NC(=O)C1(F)CCN(S(=O)(=O)c2ccc(N3CCCC3)cc2-c2ccccc2Cl)CC1 [Compound 119, (R,Z)-1-((2′-chloro-5-(pyrrolidin-1-yl)-[1,1′-biphenyl]-2-yl)sulfonyl)-4-fluoro-N-(4-(methylsulfonyl)but-3-en-2-yl)piperidine-4-carboxamide]
400 nM | 390 nM | COc1ccc(Cl)c(-c2cc(N(C)C)ccc2S(=O)(=O)N2CCC(F)(C(=O)N[C@@H](C)/C=C\S(C)(=O)=O)CC2)c1 [Compound 87, (S,Z)-1-((2′-chloro-5-(dimethylamino)-5′-methoxy-[1,1′-biphenyl]-2-yl)sulfonyl)-4-fluoro-N-(4-(methylsulfonyl)but-3-en-2-yl)piperidine-4-carboxamide]
26 nM | 50 nM | C[C@@H](/C=C\S(C)(=O)=O)NC(=O)C1(F)CCN(S(=O)(=O)c2ccc(Cl)cc2-c2ccccc2Cl)CC1 [Compound 6, (S,Z)-1-((2′,5-dichloro-[1,1′-biphenyl]-2-yl)sulfonyl)-4-fluoro-N-(4-(methylsulfonyl)but-3-en-2-yl)piperidine-4-carboxamide]
107 nM | 90 nM | COc1ccc(S(=O)(=O)N2CCC(F)(C(=O)N[C@@H](C)/C=C\S(C)(=O)=O)CC2)c(-c2cccc(Cl)c2)c1 [Compound 7, (S,Z)-1-((3′-chloro-5-methoxy-[1,1′-biphenyl]-2-yl)sulfonyl)-4-fluoro-N-(4-(methylsulfonyl)but-3-en-2-yl)piperidine-4-carboxamide]
910 nM | 1300 nM | C[C@H](/C=C\S(C)(=O)=O)NC(=O)C1(F)CCN(S(=O)(=O)c2cc(=O)n(C)cc2-c2ccccc2Cl)CC1 [Compound 275, (R,Z)-1-((5-(2-chlorophenyl)-1-methyl-2-oxo-1,2-dihydropyridin-4-yl)sulfonyl)-4-fluoro-N-(4-(methylsulfonyl)but-3-en-2-yl)piperidine-4-carboxamide]
540 nM | 520 nM | CC[C@@H](/C=C\S(C)(=O)=O)NC(=O)C1(F)CCN(S(=O)(=O)c2ccc(Cl)cc2-c2cccc(OC)c2)CC1 [Compound 83, (S,Z)-1-((5-chloro-3′-methoxy-[1,1′-biphenyl]-2-yl)sulfonyl)-4-fluoro-N-(1-(methylsulfonyl)pent-1-en-3-yl)piperidine-4-carboxamide]
1110 nM | 980 nM | COc1cccc(-c2cc(Cl)ccc2S(=O)(=O)N2CCC(C)(C(=O)N[C@H](C)/C=C\S(C)(=O)=O)CC2)c1 [Compound 203, (R,Z)-1-((5-chloro-3′-methoxy-[1,1′-biphenyl]-2-yl)sulfonyl)-4-methyl-N-(4-(methylsulfonyl)but-3-en-2-yl)piperidine-4-carboxamide]
114 nM | 130 nM | C[C@H](/C=C\S(C)(=O)=O)NC(=O)C1(F)CCN(S(=O)(=O)c2cnc(Cl)cc2-c2ccccc2Cl)CC1 [Compound 231, (R,Z)-1-((6-chloro-4-(2-chlorophenyl)pyridin-3-yl)sulfonyl)-4-fluoro-N-(4-(methylsulfonyl)but-3-en-2-yl)piperidine-4-carboxamide]
180 nM | 180 nM | COc1cc(-c2ccccc2Cl)c(S(=O)(=O)N2CCC(F)(C(=O)N[C@H](C)/C=C\S(C)(=O)=O)CC2)cc1OC [Compound 202, (R,Z)-1-((2′-chloro-4,5-dimethoxy-[1,1′-biphenyl]-2-yl)sulfonyl)-4-fluoro-N-(4-(methylsulfonyl)but-3-en-2-yl)piperidine-4-carboxamide]
970 nM | 1100 nM | COc1ccc(S(=O)(=O)N2CCC(F)(C(=O)N[C@H](C)/C=C/C#N)CC2)c(-c2ccccc2Cl)c1 [Compound 229, (R,E)-1-((2′-chloro-5-methoxy-[1,1′-biphenyl]-2-yl)sulfonyl)-N-(4-cyanobut-3-en-2-yl)-4-fluoropiperidine-4-carboxamide]
400 nM | 410 nM | C[C@@H](/C=C\S(C)(=O)=O)NC(=O)C1(F)CCN(S(=O)(=O)c2ccc(Cl)cc2-c2cccc(OC3CC3)c2)CC1 [Compound 15, (S,Z)-1-((5-chloro-3′-cyclopropoxy-[1,1′-biphenyl]-2-yl)sulfonyl)-4-fluoro-N-(4-(methylsulfonyl)but-3-en-2-yl)piperidine-4-carboxamide]
1530 nM | 920 nM | C[C@@H](/C=C\S(C)(=O)=O)NC(=O)C1(F)CCN(S(=O)(=O)c2ccc(Cl)cc2-c2cccc(CCO)c2)CC1 [Compound 220, (S,Z)-1-((5-chloro-3′-(2-hydroxyethyl)-[1,1′-biphenyl]-2-yl)sulfonyl)-4-fluoro-N-(4-(methylsulfonyl)but-3-en-2-yl)piperidine-4-carboxamide]
660 nM | 780 nM | CCc1ccc(S(=O)(=O)N2CCC(F)(C(=O)N[C@H](C)/C=C\S(C)(=O)=O)CC2)c(-c2ccccc2)c1 [Compound 112, (R,Z)-1-((5-ethyl-[1,1′-biphenyl]-2-yl)sulfonyl)-4-fluoro-N-(4-(methylsulfonyl)but-3-en-2-yl)piperidine-4-carboxamide]
210 nM | 200 nM | COc1ccc(Cl)c(-c2cc(Cl)ccc2S(=O)(=O)N2CCC(F)(C(=O)N[C@@H](C)/C=C\S(C)(=O)=O)CC2)c1 [Compound 16, (S,Z)-1-((2′,5-dichloro-5′-methoxy-[1,1′-biphenyl]-2-yl)sulfonyl)-4-fluoro-N-(4-(methylsulfonyl)but-3-en-2-yl)piperidine-4-carboxamide]
